The target in this experiment is histamine H4 receptor (Homo sapiens, UniProt Q9H3N8). Nature of the experiment: histamine H4 receptor Ki (Table 1; no method described). The class given is binding.

Among the data in patent EP2270002A1 (Vereniging voor Christelijk Hoger Onderwijs, …, priority 2009, dated 2011) are Ki values, retold here.

One may read the pKi as the Ki on a negative log10 scale, so that one unit is a factor of ten.

pKi: −log10 of the molar value.

Sequence of histamine H4 receptor (Q9H3N8 whole entry, species assumed): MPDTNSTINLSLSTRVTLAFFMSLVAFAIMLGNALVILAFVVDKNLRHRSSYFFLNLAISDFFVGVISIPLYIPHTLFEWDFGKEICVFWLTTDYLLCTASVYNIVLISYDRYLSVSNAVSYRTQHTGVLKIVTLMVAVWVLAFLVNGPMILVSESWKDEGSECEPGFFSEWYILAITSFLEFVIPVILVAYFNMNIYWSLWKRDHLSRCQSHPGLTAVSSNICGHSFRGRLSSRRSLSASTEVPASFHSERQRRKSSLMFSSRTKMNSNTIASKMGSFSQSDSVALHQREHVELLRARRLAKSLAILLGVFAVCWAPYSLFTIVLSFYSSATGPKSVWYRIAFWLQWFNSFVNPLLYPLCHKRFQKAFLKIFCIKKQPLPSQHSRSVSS

Molecule `CN1CCN(c2nc(N)nc3cc(-c4ccco4)ccc23)CC1` [Compound 8, 7-(furan-2-yl)-4-(4-methylpiperazin-1-yl)quinazolin-2-amine] showed a pKi of 8.40.

Turning to `COc1ccc(-c2cccc3c(N4CCN(C)CC4)nc(N)nc23)cc1` [Compound 15, 8-(4-methoxyphenyl)-4-(4-methylpiperazin-1-yl)quinazolin-2-amine], the pKi was 6.02.

Consider `Cc1cccc(C)c1-c1cccc2c(N3CCN(C)CC3)nc(N)nc12` [Compound 13, 8-(2,6-dimethylphenyl)-4-(4-methylpiperazin-1-yl)quinazolin-2-amine], for which the pKi is 6.66.

The molecule `Cc1ccc2c(N3CCN(C)CC3)nc(N)nc2c1` [Compound 1] gave a pKi of 7.62. Compared with the last molecule, the pKi is 0.96 log units higher.

`CN1CCN(c2nc(N)nc3cc(-c4ccc(C#N)cc4)ccc23)CC1` [Compound 5, 4-(2-amino-4-(4-methylpiperazin-1-yl)quinazolin-7-yl)benzonitrile] had a pKi of 7.54.

`CN1CCN(c2nc(N)nc3cc(Br)ccc23)CC1` [Compound 2, 7-bromo-4-(4-methylpiperazin-1-yl)quinazolin-2-amine] gave a pKi of 7.77. This pKi lies 0.23 log units higher than the previous one.

Turning to `COc1ccc(-c2ccc3c(N4CCN(C)CC4)nc(N)nc3c2)cc1` [Compound 6, 7-(4-methoxyphenyl)-4-(4-methylpiperazin-1-yl)quinazolin-2-amine], the pKi was 7.26. This pKi is 0.51 log units lower than that of the molecule before.

On to `Cc1cccc(C)c1-c1ccc2c(N3CCN(C)CC3)nc(N)nc2c1` [Compound 4, 7-(2,6-dimethylphenyl)-4-(4-methylpiperazin-1-yl)quinazolin-2-amine], for which the pKi was 7.05.

As to `CN1CCN(c2nc(N)nc3c(-c4ccccc4)cccc23)CC1` [Compound 12, 4-(4-methylpiperazin-1-yl)-8-phenylquinazolin-2-amine], the pKi was 7.49.

For the molecule `CN1CCN(c2nc(N)nc3cc(-c4ccccc4)ccc23)CC1` [Compound 3, 4-(4-methylpiperazin-1-yl)-7-phenylquinazolin-2-amine], the pKi is 7.72.

In the case of `CN1CCN(c2nc(N)nc3cc(-c4ccoc4)ccc23)CC1` [Compound 7, 7-(furan-3-yl)-4-(4-methylpiperazin-1-yl)quinazolin-2-amine], the pKi was 8.22.

`CN1CCN(c2nc(N)nc3cc(-c4ccsc4)ccc23)CC1` [Compound 9, 4-(4-methylpiperazin-1-yl)-7-(thiophen-3-yl)quinazolin-2-amine] gave a pKi of 8.30. This pKi and that of the molecule before are within 0.2 log units of each other.

Molecule `CN1CCN(c2nc(N)nc3c(Br)cccc23)CC1` [Compound 11, 8-bromo-4-(4-methylpiperazin-1-yl)quinazolin-2-amine] gave a pKi of 6.95.

For `CN1CCN(c2nc(N)nc3c(-c4ccoc4)cccc23)CC1` [Compound 16, 8-(furan-3-yl)-4-(4-methylpiperazin-1-yl)quinazolin-2-amine], the pKi was 6.96. The pKi values of the last two molecules are within 0.2 log units of each other.

As to `Cc1cccc2c(N3CCN(C)CC3)nc(N)nc12` [Compound 10], the pKi is 7.04.

`CN1CCN(c2nc(N)nc3c(-c4ccc(C#N)cc4)cccc23)CC1` [Compound 14, 4-(2-amino-4-(4-methylpiperazin-1-yl)quinazolin-8-yl)benzonitrile] gave a pKi of 5.63.
